Target: MOR-Venus (mu opioid receptor fused to Venus-YFP) (Mus musculus, UniProt P42866)
Assay: Galphai2/Ggamma2 BRET2 dissociation assay, HEK293
Type: cell-based
Conditions: agonist, 10 min stimulation

MOR-Venus (mu opioid receptor fused to Venus-YFP), sequence (P42866 whole entry, the tested form may be a part): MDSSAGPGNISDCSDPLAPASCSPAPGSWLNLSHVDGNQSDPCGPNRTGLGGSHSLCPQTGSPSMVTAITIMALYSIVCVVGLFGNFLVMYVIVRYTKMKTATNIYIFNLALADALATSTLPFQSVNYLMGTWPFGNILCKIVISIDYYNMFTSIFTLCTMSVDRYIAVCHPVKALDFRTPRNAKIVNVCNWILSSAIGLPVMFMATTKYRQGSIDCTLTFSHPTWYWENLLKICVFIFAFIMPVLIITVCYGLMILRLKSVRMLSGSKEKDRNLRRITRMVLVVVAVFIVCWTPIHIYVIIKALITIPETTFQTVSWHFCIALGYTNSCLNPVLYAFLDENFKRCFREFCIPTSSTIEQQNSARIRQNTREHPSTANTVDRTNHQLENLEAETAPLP

Structure (SMILES): COc1ccc2c3c1O[C@H]1C(=O)CC[C@@]4(O)[C@@H](C2)N(C)CC[C@]314 [oxycodone]
- EC50: except for oxycodone, which had a trend of lower potency

Source: article PMC6439305 (iScience, 2019)
